Source: patent publication US11739098B2 (BRISTOL-MYERS SQUIBB COMPANY, priority 2017, dated 2023)

Experiments:
Type in all cases: cell-based
human TLR7 = biological target: T1, human TLR7 (Homo sapiens, UniProt Q9NYK1); test: TLR7 inhibition reporter assay (HEK-Blue cells, SEAP reporter, gardiquimod stimulation); conditions: HEK-Blue cells overexpressing human TLR7, SEAP reporter, gardiquimod 7.5 μM
T1 construct: host or cells: HEK-Blue cells (HEK293-derived reporter line)
T1 sequence (Q9NYK1 27-1049): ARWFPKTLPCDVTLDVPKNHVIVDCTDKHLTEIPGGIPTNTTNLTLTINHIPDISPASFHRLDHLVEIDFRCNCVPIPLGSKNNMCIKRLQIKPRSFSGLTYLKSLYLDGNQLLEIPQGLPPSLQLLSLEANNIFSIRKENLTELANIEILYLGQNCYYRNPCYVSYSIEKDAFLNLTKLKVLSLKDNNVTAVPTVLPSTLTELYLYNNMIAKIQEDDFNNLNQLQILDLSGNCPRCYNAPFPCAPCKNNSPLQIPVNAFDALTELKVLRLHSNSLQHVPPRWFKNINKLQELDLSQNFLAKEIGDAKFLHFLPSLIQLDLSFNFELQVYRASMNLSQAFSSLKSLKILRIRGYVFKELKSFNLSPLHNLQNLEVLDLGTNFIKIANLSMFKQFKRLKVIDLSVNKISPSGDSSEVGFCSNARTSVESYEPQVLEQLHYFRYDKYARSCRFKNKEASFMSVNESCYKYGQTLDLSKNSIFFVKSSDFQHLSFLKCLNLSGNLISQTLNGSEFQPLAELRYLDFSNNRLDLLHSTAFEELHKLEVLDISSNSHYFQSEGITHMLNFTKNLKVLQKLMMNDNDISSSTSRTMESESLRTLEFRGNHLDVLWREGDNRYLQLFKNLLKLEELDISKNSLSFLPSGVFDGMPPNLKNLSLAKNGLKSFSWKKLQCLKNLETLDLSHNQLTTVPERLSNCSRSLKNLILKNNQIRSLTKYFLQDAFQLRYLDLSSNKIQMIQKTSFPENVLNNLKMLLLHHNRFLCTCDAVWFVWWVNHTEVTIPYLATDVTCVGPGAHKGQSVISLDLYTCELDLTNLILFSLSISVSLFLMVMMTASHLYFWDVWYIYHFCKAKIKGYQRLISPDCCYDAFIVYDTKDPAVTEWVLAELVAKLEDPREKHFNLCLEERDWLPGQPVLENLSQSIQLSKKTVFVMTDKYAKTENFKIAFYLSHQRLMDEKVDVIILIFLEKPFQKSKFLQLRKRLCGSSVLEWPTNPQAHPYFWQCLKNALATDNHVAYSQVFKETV
Summary of the method: (§1)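 Read-out is SEAP activity in HEK-Blue detection medium after 22 h at 37 °C, converted to percent inhibition against agonist-plus-DMSO and reference-inhibitor controls. Cells saw compound (0.05 nM–50 μM, 30 min, room temperature) before gardiquimod 7.5 μM, R848 15.9 μM or ODN2006 5 nM for TLR7, TLR8 and TLR9, respectively.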

human TLR8 = biological target: T2, human TLR8 (Homo sapiens, UniProt Q9NR97); test: TLR8 inhibition reporter assay (HEK-Blue cells, SEAP reporter, R848 stimulation); conditions: HEK-Blue cells overexpressing human TLR8, SEAP reporter, R848 15.9 μM
T2 construct: host or cells: HEK-Blue cells (HEK293-derived reporter line)
T2 sequence (Q9NR97 27-1041): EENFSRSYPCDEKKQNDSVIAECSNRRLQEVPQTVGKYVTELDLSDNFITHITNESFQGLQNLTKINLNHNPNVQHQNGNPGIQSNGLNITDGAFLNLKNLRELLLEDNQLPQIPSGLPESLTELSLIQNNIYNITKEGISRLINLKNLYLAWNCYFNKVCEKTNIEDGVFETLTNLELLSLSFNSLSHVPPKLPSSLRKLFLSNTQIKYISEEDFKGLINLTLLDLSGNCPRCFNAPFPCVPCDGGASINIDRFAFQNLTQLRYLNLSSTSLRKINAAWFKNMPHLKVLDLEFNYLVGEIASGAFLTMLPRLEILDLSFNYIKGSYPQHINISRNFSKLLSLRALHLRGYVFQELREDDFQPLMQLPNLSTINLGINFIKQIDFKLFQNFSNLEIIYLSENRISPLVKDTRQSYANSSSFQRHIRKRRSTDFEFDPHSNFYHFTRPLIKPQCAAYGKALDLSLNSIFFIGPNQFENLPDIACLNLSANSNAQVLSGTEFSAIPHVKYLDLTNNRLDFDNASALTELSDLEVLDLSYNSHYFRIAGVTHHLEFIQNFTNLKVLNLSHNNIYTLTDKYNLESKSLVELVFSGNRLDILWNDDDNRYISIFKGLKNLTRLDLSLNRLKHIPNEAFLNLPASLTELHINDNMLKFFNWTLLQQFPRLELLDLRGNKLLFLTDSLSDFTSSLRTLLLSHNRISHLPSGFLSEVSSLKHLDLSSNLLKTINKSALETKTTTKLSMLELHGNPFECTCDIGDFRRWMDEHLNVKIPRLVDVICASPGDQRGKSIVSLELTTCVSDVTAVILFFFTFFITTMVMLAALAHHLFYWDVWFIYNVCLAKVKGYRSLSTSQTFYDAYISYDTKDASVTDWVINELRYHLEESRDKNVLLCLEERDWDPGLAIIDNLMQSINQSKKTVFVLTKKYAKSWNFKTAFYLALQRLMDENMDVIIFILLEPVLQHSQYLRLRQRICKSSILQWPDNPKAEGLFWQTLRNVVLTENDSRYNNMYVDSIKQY
Summary of the method: as §1

human TLR9 = biological target: T3, human TLR9 (Homo sapiens, UniProt Q9NR96); test: TLR9 inhibition reporter assay (HEK-Blue cells, SEAP reporter, ODN2006 stimulation); conditions: HEK-Blue cells overexpressing human TLR9, SEAP reporter, ODN2006 5 nM
T3 construct: host or cells: HEK-Blue cells (HEK293-derived reporter line)
T3 sequence (Q9NR96 26-1032): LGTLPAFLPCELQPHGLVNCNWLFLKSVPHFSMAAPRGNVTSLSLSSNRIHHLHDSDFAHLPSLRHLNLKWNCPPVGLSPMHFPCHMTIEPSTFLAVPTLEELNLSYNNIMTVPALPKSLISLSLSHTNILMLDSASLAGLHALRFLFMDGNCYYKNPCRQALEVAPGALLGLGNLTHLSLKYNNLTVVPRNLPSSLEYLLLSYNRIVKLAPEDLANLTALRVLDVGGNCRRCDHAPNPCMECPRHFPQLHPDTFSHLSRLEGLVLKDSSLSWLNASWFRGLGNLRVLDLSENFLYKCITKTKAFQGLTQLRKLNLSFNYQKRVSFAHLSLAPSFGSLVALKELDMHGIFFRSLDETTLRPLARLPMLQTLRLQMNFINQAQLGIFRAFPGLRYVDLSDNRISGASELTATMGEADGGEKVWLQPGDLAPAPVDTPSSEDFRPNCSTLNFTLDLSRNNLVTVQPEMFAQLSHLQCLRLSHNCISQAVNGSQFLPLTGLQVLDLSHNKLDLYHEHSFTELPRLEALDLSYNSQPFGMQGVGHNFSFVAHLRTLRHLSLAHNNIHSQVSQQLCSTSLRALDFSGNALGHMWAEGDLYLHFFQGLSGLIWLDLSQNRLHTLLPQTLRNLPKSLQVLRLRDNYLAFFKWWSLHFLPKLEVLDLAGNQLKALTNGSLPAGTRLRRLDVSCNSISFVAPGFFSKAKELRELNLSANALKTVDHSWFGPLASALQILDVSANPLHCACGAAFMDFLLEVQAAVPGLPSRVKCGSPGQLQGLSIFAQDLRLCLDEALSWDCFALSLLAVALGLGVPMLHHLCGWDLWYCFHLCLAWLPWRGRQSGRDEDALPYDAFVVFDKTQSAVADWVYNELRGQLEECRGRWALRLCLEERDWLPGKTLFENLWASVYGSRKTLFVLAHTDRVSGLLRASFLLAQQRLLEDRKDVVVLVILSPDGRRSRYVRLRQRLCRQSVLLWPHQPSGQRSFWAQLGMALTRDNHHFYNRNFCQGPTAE
Summary of the method: as §1

| SMILES | IC50 (human TLR7) [nM] | IC50 (human TLR8) [nM] | IC50 (human TLR9) [nM] |
| --- | --- | --- | --- |
| CC(C)c1c(-c2ccc3ncsc3c2)[nH]c2ccc(C3CCN(CC(=O)N(C)C)CC3)cc12 [Example 298, 2-(4-(2-(benzo[d]thiazol-6-yl)-3-isopropyl-1H-indol-5-yl)piperidin-1-yl)-N,N-dimethylacetamide] | < 100 | < 100 | 1000 to 50000 |
| Cc1cc(-c2[nH]c3ccc(C4CCN(C5COC5)CC4)cc3c2C(C)C)cc2nccn12 [Example 711, 7-(3-isopropyl-5-(1-(oxetan-3-yl)piperidin-4-yl)-1H-indol-2-yl)-5-methylimidazo[1,2-a]pyridine] | 100 to 1000 | 100 to 1000 | 1000 to 50000 |
| COc1ccc2nc(Cl)c(CN3CCC(c4ccc5[nH]c(-c6ccnc7[nH]ncc67)c(C(C)C)c5c4)CC3)cc2c1 [Example 902, 2-chloro-3-((4-(3-isopropyl-2-(1H-pyrazolo[3,4-b]pyridin-4-yl)-1H-indol-5-yl)piperidin-1-yl)methyl)-6-methoxyquinoline] | 100 to 1000 | 100 to 1000 | > 50000 |
| CC(C)c1c(-c2cc(Cl)c3ncccc3c2)[nH]c2ccc(C3CCN(CC(C)(C)O)CC3)cc12 [Example 767, 1-(4-(2-(8-chloroquinolin-6-yl)-3-isopropyl-1H-indol-5-yl)piperidin-1-yl)-2-methylpropan-2-ol] | < 100 | < 100 | 1000 to 50000 |
| CNC(=O)CN1CCC(c2ccc3[nH]c(-c4cnc5c(cnn5C)c4)c(C(C)C)c3c2)CC1 [Example 366, 2-(4-(3-isopropyl-2-(1-methyl-1H-pyrazolo[3,4-b]pyridin-5-yl)-1H-indol-5-yl)piperidin-1-yl)-N-methylacetamide] | < 100 | < 100 | 1000 to 50000 |
| Cc1cc2cc(-c3[nH]c4ccc(C5CCNCC5)cc4c3C(C)C)ccn2n1 [Example 145, 5-(3-isopropyl-5-(piperidin-4-yl)-1H-indol-2-yl)-2-methylpyrazolo[1,5-a]pyridine] | < 100 | 1000 to 50000 | 1000 to 50000 |
| CC(C)c1c(-c2ccnc3[nH]ncc23)[nH]c2ccc(C3CCN(C(=O)Cc4c[nH]cn4)CC3)cc12 [Example 612, 2-(1H-imidazol-4-yl)-1-(4-(3-isopropyl-2-(1H-pyrazolo[3,4-b]pyridin-4-yl)-1H-indol-5-yl)piperidin-1-yl)ethan-1-one] | < 100 | < 100 | 1000 to 50000 |
| CC(C)c1c(-c2ccc3occc3c2)[nH]c2ccc(C3CCNCC3)cc12 [Example 67, 2-(benzofuran-5-yl)-3-isopropyl-5-(piperidin-4-yl)-1H-indole] | 100 to 1000 | 100 to 1000 | 1000 to 50000 |
| Cc1c(-c2[nH]c3ccc(C4CCNCC4)cc3c2C(C)C)c2cccnc2n1C [Example 37, 3-(3-isopropyl-5-(piperidin-4-yl)-1H-indol-2-yl)-1,2-dimethyl-1H-pyrrolo[2,3-b]pyridine] | < 100 | < 100 | 1000 to 50000 |
| CCc1c(-c2ccnc3[nH]ccc23)[nH]c2ccc(C3CCN(C4CCN(C)CC4)CC3)cc12 [Example 839, 4-(3-ethyl-5-(1′-methyl-[1,4′-bipiperidin]-4-yl)-1H-indol-2-yl)-1H-pyrrolo[2,3-b]pyridine] | < 100 | < 100 | < 100 |
| Cc1nnn2ccc(-c3[nH]c4ccc(C5CCN(C(=O)CN(C)C)CC5)cc4c3C(C)C)cc12 [Example 487, 2-(dimethylamino)-1-(4-(3-isopropyl-2-(3-methyl-[1,2,3]triazolo[1,5-a]pyridin-5-yl)-1H-indol-5-yl)piperidin-1-yl)ethan-1-one] | < 100 | < 100 | 1000 to 50000 |
| CC(C)c1c(-c2ccnc3[nH]ncc23)[nH]c2ccc(C3CCNCC3)cc12 [Example 230, 4-(3-isopropyl-5-(piperidin-4-yl)-1H-indol-2-yl)-1H-pyrazolo[3,4-b]pyridine] | < 100 | < 100 | 100 to 1000 |
